Test results taken from patent US7041686B2, “Substituted imidazoles useful in the treatment of inflammatory diseases” (priority 2000, dated 2006).

Columns and labels:
TNF-α = assay: LPS-induced TNF-α production in human PBMC, in vitro whole cell assay (ELISA); type: cell-based; details: LPS stimulation overnight, TNF-α by ELISA
Protocol: Compounds of the invention were measured for their ability to inhibit the activity of p38 in an in vitro whole cell assay using peripheral blood mononuclear cells (“PBMC” ) obtained from human blood as follows. Freshly obtained venous blood was anticoagulated with heparin, diluted with an equal volume of phosphate buffered saline (“PBS” ) and placed in a sterile tube or other container. Aliquots (30 mL) of this mixture were transferred to centrifuge tubes which were underlaid with Ficoll-Hypaque (15 mL). The prepared tubes were centrifuged at 400×g without braking for 30 min at room temperature. Approximately ½ to ⅔ of the platelet layer above the mononuclear cell band was removed with a pipet. The majority of the mononuclear cell layer was carefully removed using a pipet and these PBMCs were diluted with PBS and spun at 600×g for 15 min. The resulting PBMCs were washed with another portion of PBS and spun at 400×g for 10 min at room temperature. The recovered pellets were diluted in low endotoxin RPMI/1% FCS culture medium and gave a cell concentration of 0.5–2.0×10^6 PMBC/mL. A small volume of the suspension was removed for counting on a hemocytometer and the remaining preparation was centrifuged at 200×g for 15 min at room temperature. The recovered pelleted PMBC were resuspended in RPMI/1% FCS to a concentration of 1.67×10^6/mL. […]

Mouse TNF-α = assay: LPS induced TNF-α production, in vivo rodent assay (oral dosing, serum ELISA); details: LPS 1 mg/kg i.p. 30 min after dosing, serum 1 h later; for inhibition at 10 mg/kg: oral 10 mg/kg; for inhibition at 25 mg/kg: oral 25 mg/kg
Protocol: Mice (BALB/cJ females, Jackson Laboratories) or rats (Lewis males, Charles River) were fasted for 30 min prior to oral dosing with 5–10 mL/kg of test compound at 5–50 mg/kg. Thirty minutes after dosing, the animals were injected intraperitoneally with LPS at 1 mg/kg and returned to their cages for 1 h. Animals were anesthetized by CO2, exsanguinated by cardiac puncture and whole blood collected (0.1–0.7 mL). The blood was allowed to clot and serum was transferred to a centrifuge tube. This sample was centrifuged, serum was collected, aliquoted and frozen at −80 C. Samples were tested by commercial ELISAs for TNF-α (Endogen for mouse TNF-α and Biosource for rat TNF-α), resulting in data as shown in Table A.

Row | IC50 (TNF-α) [nM] | melting point [°C] | SMILES | inhibition at 10 mg/kg (Mouse TNF-α) [%] | inhibition at 25 mg/kg (Mouse TNF-α) [%]
1 | 15 | 171 to 172 | CN1CCC/C1=C\c1nc(-c2ccc(F)cc2)c(-c2ccncc2)n1CCCc1ccccc1 [Compound 1, 4-[4-(4-fluorophenyl)-2-[(E)-(1-methyl-2-pyrrolidinylidene)methyl]-1-(3-phenylpropyl)-1H-imidazol-5-yl]-pyridine] | 77 | 99
2 | 17 | 126.6 to 127.6 | CCN1CCC/C1=C\c1nc(-c2ccc(F)cc2)c(-c2ccncc2)n1CCCc1ccccc1 [Compound 2, 4-[4-(4-fluorophenyl)-2-[(E)-(1-ethyl-2-pyrrolidinylidene)methyl]-1-(3-phenylpropyl)-1H-imidazol-5-yl]-pyridine] | 89 | 98
